Measurements reported in PubChem BioAssay AID1963867 (Molecular Pharmacology Branch, DTP, NCI, 2024).
pIC50: −log10 of the molar value.

System: KRAS-mutant PDC tumor spheroid with HUVEC/MSC, viability
Test: Anticancer human tumor 327498-153-R-J2-PDC patient-derived uterine carcinosarcoma cell line growth inhibition [KRAS2]
Conditions: for pIC50: curve of first compound; for viability, T/C: stronger effect = lower value
How it was run: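 Combination screen of spheroid viability in tumor-cell co-cultures with endothelial (HUVEC) and mesenchymal stem cell stroma. Each agent was tested in half-log dilutions, topping at clinical Cmax or at 10 microM without a known Cmax.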

[1] = second compound 0.1 µM, first compound 0.01 µM
[2] = second compound 0.1 µM, first compound 0.0316 µM
[3] = second compound 0.1 µM, first compound 0.1 µM
[4] = second compound 0.316 µM, first compound 0.01 µM
[5] = second compound 0.316 µM, first compound 0.0316 µM
[6] = second compound 0.316 µM, first compound 0.1 µM
[7] = second compound 1 µM, first compound 0.01 µM
[8] = second compound 1 µM, first compound 0.0316 µM
[9] = second compound 1 µM, first compound 0.1 µM
[10] = second compound 3.16 µM, first compound 0.01 µM
[11] = second compound 3.16 µM, first compound 0.0316 µM
[12] = second compound 3.16 µM, first compound 0.1 µM
[13] = second compound 10 µM, first compound 0.01 µM
[14] = second compound 10 µM, first compound 0.0316 µM
[15] = second compound 10 µM, first compound 0.1 µM
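Note: spheroids exposed to agents for seven days before reading.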
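Throughout, for viability, T/C: 100% = DMSO vehicle wells so lower means fewer viable cells.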

Q: What does the source list for `CC(=O)OC12COC1CC(O)C1(C)C(=O)C(O)C3=C(C)C(OC(=O)C(O)C(NC(=O)OC(C)(C)C)c4ccccc4)CC(O)(C(OC(=O)c4ccccc4)C21)C3(C)C` (stereo not given) + COc1cc2nc(C)nc(NC(C)c3cc(N)cc(C(F)(F)F)c3)c2cc1OC1CCOC1?
A: pIC50 (second compound 0.1 µM): > 8.00; pIC50 (second compound 0.316 µM): > 8.00; pIC50 (second compound 1 µM): > 8.00; pIC50 (second compound 3.16 µM): > 8.00; pIC50 (second compound 10 µM): > 8.00; viability, T/C [1]: 8.2%; viability, T/C [2]: 6.47%; viability, T/C [3]: 7.11%; viability, T/C (second compound 0.1 µM, first compound 0.316 µM): 7.15%; viability, T/C (second compound 0.1 µM, first compound 1 µM): 9.33%; viability, T/C (second compound 0.1 µM, first compound 3.16 µM): 13.3%; viability, T/C [4]: 7.68%; viability, T/C [5]: 5.72%; viability, T/C [6]: 6.66%; viability, T/C (second compound 0.316 µM, first compound 0.316 µM): 6.34%; viability, T/C (second compound 0.316 µM, first compound 1 µM): 9.71%; viability, T/C (second compound 0.316 µM, first compound 3.16 µM): 13.2%; viability, T/C [7]: 7.84%; viability, T/C [8]: 5.99%; viability, T/C [9]: 6.32%; viability, T/C (second compound 1 µM, first compound 0.316 µM): 6.76%; viability, T/C (second compound 1 µM, first compound 1 µM): 8.86%; viability, T/C (second compound 1 µM, first compound 3.16 µM): 11.6%; viability, T/C [10]: 10.3%; viability, T/C [11]: 5.59%; viability, T/C [12]: 6.6%; viability, T/C (second compound 3.16 µM, first compound 0.316 µM): 6.36%; viability, T/C (second compound 3.16 µM, first compound 1 µM): 9.6%; viability, T/C (second compound 3.16 µM, first compound 3.16 µM): 12.6%; viability, T/C [13]: 6.87%; viability, T/C [14]: 6.05%; viability, T/C [15]: 7.37%; viability, T/C (second compound 10 µM, first compound 0.316 µM): 9.15%; viability, T/C (second compound 10 µM, first compound 1 µM): 13.1%; viability, T/C (second compound 10 µM, first compound 3.16 µM): 11.8%

Q: How did the pIC50 (second compound 0.1 µM) turn out when `CN(C)C/C=C/C(=O)Nc1cc2c(Nc3ccc(F)c(Cl)c3)ncnc2cc1O[C@H]1CCOC1` + COc1cc2nc(C)nc(NC(C)c3cc(N)cc(C(F)(F)F)c3)c2cc1OC1CCOC1 was run?
A: Its pIC50 is < 7.00.

Q: What about the pIC50 (second compound 0.316 µM) of the same compound?
A: The pIC50 was < 7.00.

Q: And the pIC50 (second compound 1 µM)?
A: The pIC50 was < 7.00.

Q: What about the pIC50 (second compound 3.16 µM) of the same compound?
A: The pIC50 was 7.79.

Q: What about the pIC50 (second compound 10 µM) of the same compound?
A: Its pIC50 is < 7.00.

Q: What about the viability, T/C (second compound 0.1 µM, first compound 0.000316 µM) of the same compound?
A: Its viability, T/C is 88.6%.

Q: And the viability, T/C (second compound 0.1 µM, first compound 0.001 µM)?
A: The viability, T/C was 84%.

Q: What about the viability, T/C (second compound 0.1 µM, first compound 0.00316 µM) of the same compound?
A: Its viability, T/C is 75.2%.

Q: And the viability, T/C [1]?
A: The viability, T/C was 76.7%.

Q: What about the viability, T/C [2] of the same compound?
A: The viability, T/C was 69.5%.

Q: And the viability, T/C [3]?
A: The viability, T/C was 68.1%.

Q: What about the viability, T/C (second compound 0.316 µM, first compound 0.000316 µM) of the same compound?
A: The viability, T/C was 72.5%.

Q: What about the viability, T/C (second compound 0.316 µM, first compound 0.001 µM) of the same compound?
A: Its viability, T/C is 76%.

Q: And the viability, T/C (second compound 0.316 µM, first compound 0.00316 µM)?
A: The viability, T/C was 64%.

Q: What about the viability, T/C [4] of the same compound?
A: The viability, T/C was 67.3%.

Q: What about the viability, T/C [5] of the same compound?
A: The viability, T/C was 59.9%.

Q: What about the viability, T/C [6] of the same compound?
A: Its viability, T/C is 62.4%.

Q: What about the viability, T/C (second compound 1 µM, first compound 0.000316 µM) of the same compound?
A: Its viability, T/C is 90.8%.

Q: What about the viability, T/C (second compound 1 µM, first compound 0.001 µM) of the same compound?
A: The viability, T/C was 85.1%.

Q: What about the viability, T/C (second compound 1 µM, first compound 0.00316 µM) of the same compound?
A: Its viability, T/C is 88.1%.

Q: What about the viability, T/C [7] of the same compound?
A: The viability, T/C was 86%.

Q: What about the viability, T/C [8] of the same compound?
A: The viability, T/C was 83.8%.

Q: And the viability, T/C [9]?
A: Its viability, T/C is 84.8%.

Q: And the viability, T/C (second compound 3.16 µM, first compound 0.000316 µM)?
A: Its viability, T/C is 60.9%.

Q: And the viability, T/C (second compound 3.16 µM, first compound 0.001 µM)?
A: The viability, T/C was 57.1%.

Q: What about the viability, T/C (second compound 3.16 µM, first compound 0.00316 µM) of the same compound?
A: The viability, T/C was 52.7%.

Q: And the viability, T/C [10]?
A: Its viability, T/C is 48.2%.

Q: And the viability, T/C [11]?
A: Its viability, T/C is 49.9%.

Q: What about the viability, T/C [12] of the same compound?
A: The viability, T/C was 49.5%.

Q: What about the viability, T/C (second compound 10 µM, first compound 0.000316 µM) of the same compound?
A: The viability, T/C was 58.5%.

Q: What about the viability, T/C (second compound 10 µM, first compound 0.001 µM) of the same compound?
A: The viability, T/C was 56.7%.

Q: And the viability, T/C (second compound 10 µM, first compound 0.00316 µM)?
A: Its viability, T/C is 49.8%.

Q: And the viability, T/C [13]?
A: The viability, T/C was 49.3%.

Q: What about the viability, T/C [14] of the same compound?
A: Its viability, T/C is 53.7%.

Q: And the viability, T/C [15]?
A: The viability, T/C was 54.6%.
